Laboratory results as given in ChEMBL document CHEMBL1201862, “PubChem BioAssay data set” (2004).
“And” between values parts separate entries of the source, which are not always exact repeats. Identical values can stand only once. The source made the active and inactive calls.

What was measured:
[1] = molecular target: Lysosomal acid glucosylceramidase (Homo sapiens, UniProt P04062); test: Dose response cell-based high throughput screening assay to identify enhancers of beta-glucosidase activity. [Related pubchem assays: 784 ]; format: functional
[2] = luciferase reporter signal suppression in cells – H4 neuroglioma cells, luminescence, dose response (AID 1990); format: functional, cell-based
[3] = Luminescence Cell-Based Dose Response HTS to Identify Inhibitors of 5'UTR Stem-Loop Driven Prion Protein mRNA Translation in H4 Neuroglioblastoma Cells. [Related pubchem assays: 1827 (Project Summary), 1813 (Primary HTS)]; format: functional
[4] = alpha-synuclein stem-loop luciferase translation blockers – H4 neuroglioma cells, luminescence, confirmation (AID 1988); format: functional, cell-based
[5] = molecular target: T1, Alkaline phosphatase, tissue-nonspecific isozyme (Homo sapiens, UniProt P05186)
T1 sequence (P05186 whole entry): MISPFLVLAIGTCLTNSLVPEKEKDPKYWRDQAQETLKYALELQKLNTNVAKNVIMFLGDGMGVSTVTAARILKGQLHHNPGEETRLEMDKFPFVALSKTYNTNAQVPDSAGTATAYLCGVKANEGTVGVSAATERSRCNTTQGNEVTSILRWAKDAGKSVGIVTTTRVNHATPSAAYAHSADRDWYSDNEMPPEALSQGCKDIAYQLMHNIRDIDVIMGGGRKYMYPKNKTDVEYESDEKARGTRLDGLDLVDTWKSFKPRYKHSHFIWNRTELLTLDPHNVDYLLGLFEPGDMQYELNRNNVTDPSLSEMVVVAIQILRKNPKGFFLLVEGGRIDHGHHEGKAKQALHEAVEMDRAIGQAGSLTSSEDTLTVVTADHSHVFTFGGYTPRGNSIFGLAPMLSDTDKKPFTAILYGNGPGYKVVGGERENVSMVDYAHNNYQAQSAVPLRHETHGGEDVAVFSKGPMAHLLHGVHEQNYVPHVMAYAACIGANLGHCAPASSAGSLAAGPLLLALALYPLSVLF

[6] = molecular target: Prothrombin (Homo sapiens, UniProt P00734); test: Thrombin 1536 HTS Dose Response Confirmation. [Related pubchem assays: 1046 (Thrombin 1536 HTS; hits were confirmed in this assay)]; format: functional
[7] = molecular target: T2, Tyrosine-protein phosphatase non-receptor type 7 (Homo sapiens, UniProt P35236); format: functional
T2 sequence (P35236 whole entry): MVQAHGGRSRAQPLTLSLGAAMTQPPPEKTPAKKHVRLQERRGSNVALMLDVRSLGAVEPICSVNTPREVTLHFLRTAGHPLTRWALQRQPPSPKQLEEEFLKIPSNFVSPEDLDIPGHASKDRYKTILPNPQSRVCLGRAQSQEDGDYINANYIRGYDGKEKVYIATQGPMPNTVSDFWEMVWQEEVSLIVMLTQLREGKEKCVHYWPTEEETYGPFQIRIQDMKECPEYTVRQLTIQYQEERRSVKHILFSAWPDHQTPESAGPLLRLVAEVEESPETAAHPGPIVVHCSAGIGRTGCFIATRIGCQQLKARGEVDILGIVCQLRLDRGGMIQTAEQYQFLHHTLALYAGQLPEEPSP

[8] = molecular target: Genome polyprotein (Hepatitis C virus, UniProt Q2Q167); test: disruption of hepatitis C core self-association – biochemical, TR-FRET, dose response (AID 2159); set-up: species or system Hepacivirus hominis;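 also: blocks dimerization of HCV core protein measured by TR-FRET between tagged core106 pairs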
Sequence of Genome polyprotein (Q2Q167 whole entry): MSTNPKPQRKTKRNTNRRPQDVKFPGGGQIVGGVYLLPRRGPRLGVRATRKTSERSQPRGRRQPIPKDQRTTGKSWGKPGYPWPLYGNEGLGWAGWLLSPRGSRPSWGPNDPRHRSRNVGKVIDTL

[9] = molecular target: T2, Tyrosine-protein phosphatase non-receptor type 7; format: functional; remark: listed apart in the source
[10] = molecular target: Glyceraldehyde-3-phosphate dehydrogenase (Homo sapiens, UniProt P04406)
[11] = molecular target: T3, Voltage-gated N-type calcium channel alpha-1B subunit/Amyloid beta A4 precursor protein-binding family A member 1 (Homo sapiens, UniProt Q00975+Q02410); format: protein assay
T3 sequence (Q00975 whole entry): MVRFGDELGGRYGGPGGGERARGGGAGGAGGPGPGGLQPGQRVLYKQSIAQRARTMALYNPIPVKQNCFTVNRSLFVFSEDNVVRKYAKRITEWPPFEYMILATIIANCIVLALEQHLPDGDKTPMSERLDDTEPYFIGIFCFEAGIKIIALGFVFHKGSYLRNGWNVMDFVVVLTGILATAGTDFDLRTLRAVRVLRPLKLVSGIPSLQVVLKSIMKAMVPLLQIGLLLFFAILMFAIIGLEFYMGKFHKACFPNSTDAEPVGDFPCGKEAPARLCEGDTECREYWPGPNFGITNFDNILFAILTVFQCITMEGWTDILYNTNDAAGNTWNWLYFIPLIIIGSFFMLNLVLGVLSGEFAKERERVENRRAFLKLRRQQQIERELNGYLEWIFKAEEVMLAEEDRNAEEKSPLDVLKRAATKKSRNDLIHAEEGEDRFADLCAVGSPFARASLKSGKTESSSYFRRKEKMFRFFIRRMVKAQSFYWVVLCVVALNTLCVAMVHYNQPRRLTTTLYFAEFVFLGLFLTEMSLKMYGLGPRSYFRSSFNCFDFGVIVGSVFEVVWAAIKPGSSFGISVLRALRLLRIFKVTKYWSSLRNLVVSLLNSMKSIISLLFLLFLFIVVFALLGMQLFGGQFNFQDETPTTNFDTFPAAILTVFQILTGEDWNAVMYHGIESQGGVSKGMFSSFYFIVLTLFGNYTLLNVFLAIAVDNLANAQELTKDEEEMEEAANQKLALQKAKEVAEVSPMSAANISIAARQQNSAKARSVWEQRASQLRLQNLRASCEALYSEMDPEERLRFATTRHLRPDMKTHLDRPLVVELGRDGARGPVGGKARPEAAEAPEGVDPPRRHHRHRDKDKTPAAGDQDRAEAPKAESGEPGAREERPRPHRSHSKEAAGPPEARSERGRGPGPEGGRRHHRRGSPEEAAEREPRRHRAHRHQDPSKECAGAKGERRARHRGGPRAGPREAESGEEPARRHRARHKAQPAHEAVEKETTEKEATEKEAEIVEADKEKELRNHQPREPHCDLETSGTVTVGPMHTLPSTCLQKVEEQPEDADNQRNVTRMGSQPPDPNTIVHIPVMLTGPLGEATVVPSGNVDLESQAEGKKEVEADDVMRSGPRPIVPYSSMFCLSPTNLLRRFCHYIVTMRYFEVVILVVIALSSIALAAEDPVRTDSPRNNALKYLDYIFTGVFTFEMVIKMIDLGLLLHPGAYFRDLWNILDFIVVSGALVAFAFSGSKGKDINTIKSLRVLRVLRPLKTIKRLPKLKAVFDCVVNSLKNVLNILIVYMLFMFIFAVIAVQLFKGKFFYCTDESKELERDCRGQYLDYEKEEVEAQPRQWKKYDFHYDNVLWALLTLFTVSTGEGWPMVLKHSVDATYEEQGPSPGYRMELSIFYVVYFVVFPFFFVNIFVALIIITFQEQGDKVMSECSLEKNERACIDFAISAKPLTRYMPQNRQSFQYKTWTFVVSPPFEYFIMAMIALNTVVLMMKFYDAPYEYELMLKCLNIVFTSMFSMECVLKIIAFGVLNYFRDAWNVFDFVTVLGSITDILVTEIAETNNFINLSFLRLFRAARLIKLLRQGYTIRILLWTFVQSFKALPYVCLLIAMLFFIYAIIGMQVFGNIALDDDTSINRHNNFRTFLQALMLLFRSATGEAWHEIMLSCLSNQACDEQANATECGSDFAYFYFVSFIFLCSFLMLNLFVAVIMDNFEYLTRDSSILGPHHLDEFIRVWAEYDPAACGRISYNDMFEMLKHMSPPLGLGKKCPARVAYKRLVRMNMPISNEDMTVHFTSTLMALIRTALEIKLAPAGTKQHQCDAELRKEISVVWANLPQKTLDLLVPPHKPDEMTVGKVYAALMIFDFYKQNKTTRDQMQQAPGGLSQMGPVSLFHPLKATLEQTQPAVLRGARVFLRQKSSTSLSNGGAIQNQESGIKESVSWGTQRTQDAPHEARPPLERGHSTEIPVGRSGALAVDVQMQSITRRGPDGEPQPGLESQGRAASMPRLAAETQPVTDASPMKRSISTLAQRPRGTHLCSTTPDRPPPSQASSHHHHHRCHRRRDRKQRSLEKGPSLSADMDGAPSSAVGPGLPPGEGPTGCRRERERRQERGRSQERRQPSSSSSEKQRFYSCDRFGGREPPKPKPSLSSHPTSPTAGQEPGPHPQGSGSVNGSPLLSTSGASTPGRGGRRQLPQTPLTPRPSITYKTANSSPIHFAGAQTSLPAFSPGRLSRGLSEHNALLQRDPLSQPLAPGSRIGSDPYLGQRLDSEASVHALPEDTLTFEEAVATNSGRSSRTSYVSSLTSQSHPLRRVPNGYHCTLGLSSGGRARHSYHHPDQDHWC
T3 sequence (Q02410 whole entry): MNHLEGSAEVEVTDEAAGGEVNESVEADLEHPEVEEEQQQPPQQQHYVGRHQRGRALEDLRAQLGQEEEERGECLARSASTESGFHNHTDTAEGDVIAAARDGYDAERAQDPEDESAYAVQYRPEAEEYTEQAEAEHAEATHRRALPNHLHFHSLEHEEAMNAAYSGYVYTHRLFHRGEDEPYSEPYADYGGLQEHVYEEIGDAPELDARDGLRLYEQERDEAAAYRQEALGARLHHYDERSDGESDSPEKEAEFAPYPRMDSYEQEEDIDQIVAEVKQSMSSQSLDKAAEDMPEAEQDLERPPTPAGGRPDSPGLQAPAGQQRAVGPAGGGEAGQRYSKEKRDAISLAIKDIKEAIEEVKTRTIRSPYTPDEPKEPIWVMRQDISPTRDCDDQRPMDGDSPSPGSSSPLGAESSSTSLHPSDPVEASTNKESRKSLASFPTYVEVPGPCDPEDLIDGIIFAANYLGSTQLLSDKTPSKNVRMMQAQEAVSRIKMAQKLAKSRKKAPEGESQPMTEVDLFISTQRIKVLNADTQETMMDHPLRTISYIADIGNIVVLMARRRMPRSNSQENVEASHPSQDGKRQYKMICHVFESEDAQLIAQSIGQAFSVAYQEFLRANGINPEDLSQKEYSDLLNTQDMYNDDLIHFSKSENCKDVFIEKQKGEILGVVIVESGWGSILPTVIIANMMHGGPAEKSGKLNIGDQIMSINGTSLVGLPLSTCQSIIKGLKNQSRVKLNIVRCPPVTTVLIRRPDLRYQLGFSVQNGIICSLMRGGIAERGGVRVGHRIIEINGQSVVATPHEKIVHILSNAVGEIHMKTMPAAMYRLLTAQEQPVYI

[12] = molecular target: Heat shock cognate 71 kDa protein (Homo sapiens, UniProt P11142); test: In Vitro Hsc70 Dose Response Fluorescence Polarization Assay. [Related pubchem assays: 1072 ]
[13] = molecular target: NS3 (Hepatitis C virus, UniProt A3EZJ3); test: PubChem AID 2173; set-up: species or system Hepacivirus hominis
[14] = CCR5-tropic HIV-1 fusion blockers – cell-based, CCR5-tropic Env, dose response (AID 2279); format: functional
[15] = molecular target: Heat shock 70 kDa protein 1A (Homo sapiens, UniProt P0DMV8); test: inhibition of Hsp70 binding activity – biochemical, fluorescence polarization, SAR follow-up (AID 1072)
Sequence of Heat shock 70 kDa protein 1A (P0DMV8 whole entry): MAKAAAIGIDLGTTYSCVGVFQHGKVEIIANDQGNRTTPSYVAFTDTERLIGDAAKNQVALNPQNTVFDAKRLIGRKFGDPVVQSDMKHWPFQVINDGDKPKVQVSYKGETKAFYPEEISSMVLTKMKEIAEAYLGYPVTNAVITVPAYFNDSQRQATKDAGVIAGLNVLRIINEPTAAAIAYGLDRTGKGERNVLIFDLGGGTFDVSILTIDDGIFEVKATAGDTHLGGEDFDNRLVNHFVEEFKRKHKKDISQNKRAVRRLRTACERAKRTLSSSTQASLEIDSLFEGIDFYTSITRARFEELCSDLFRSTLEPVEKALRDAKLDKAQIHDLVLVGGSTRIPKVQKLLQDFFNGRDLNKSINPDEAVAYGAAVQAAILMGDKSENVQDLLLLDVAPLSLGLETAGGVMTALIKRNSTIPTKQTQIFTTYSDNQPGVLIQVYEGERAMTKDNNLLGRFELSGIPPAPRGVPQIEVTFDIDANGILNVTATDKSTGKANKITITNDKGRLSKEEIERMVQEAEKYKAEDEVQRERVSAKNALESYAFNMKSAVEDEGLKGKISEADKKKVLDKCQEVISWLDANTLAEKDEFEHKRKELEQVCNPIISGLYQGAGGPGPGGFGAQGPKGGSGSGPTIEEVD

[16] = molecular target: T3, Voltage-gated N-type calcium channel alpha-1B subunit/Amyloid beta A4 precursor protein-binding family A member 1; format: protein assay; remark: listed apart in the source
[17] = molecular target: Estrogen receptor beta (Homo sapiens, UniProt Q92731); test: blockers of SRC-3 recruitment to ERβ – biochemical, ELISA, streptavidin-HRP readout, orthogonal assay, confirmation (AID 1060)
[18] = molecular target: T4, Dual specificity protein phosphatase 6 (Rattus norvegicus, UniProt Q64346)
T4 sequence (Q64346 whole entry): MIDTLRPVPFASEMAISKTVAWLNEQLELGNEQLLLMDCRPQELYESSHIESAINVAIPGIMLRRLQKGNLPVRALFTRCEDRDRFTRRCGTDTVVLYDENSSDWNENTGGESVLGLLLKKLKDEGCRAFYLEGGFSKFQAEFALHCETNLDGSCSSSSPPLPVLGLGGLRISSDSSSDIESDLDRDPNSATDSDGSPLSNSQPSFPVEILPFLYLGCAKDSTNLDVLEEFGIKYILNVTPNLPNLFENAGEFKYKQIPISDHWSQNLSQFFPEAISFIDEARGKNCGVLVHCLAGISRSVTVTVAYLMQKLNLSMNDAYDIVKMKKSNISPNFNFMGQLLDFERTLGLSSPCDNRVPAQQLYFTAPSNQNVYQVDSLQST

[19] = molecular target: T4, Dual specificity protein phosphatase 6; test: inhibition of rat DUSP6 enzyme activity – biochemical, in vitro, primary screen (AID 425)
[20] = molecular target: T5, Tyrosine-protein phosphatase non-receptor type 22 (Homo sapiens, UniProt Q9Y2R2); format: functional
T5 sequence (Q9Y2R2 whole entry): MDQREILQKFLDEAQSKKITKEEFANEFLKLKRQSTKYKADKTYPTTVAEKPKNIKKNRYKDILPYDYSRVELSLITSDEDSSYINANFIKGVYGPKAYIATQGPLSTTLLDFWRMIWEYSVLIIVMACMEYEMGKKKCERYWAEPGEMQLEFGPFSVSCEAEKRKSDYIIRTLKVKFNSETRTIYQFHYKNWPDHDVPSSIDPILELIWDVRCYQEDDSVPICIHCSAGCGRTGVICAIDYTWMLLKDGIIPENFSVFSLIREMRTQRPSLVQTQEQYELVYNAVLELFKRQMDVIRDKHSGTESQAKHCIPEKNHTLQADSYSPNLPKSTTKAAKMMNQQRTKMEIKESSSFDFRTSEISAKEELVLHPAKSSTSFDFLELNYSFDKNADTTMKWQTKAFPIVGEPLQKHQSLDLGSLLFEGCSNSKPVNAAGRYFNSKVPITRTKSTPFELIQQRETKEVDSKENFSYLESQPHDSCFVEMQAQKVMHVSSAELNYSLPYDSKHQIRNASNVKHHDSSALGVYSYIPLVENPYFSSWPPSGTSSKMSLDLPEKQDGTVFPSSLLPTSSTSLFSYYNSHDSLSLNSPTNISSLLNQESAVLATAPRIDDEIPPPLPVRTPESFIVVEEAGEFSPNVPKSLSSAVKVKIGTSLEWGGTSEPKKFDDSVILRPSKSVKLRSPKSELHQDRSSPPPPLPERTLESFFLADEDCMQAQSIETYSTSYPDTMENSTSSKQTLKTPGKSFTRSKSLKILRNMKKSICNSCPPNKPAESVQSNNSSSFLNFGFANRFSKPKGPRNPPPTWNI

[21] = molecular target: T5, Tyrosine-protein phosphatase non-receptor type 22; format: functional; remark: listed apart in the source
[22] = molecular target: Eukaryotic translation initiation factor 4E (Mus musculus, UniProt P63073); test: blockers of eIF4G binding by eIF4E – biochemical, TR-FRET, dose response (AID 855); format: functional;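 also: potency for disrupting eIF4E binding to eIF4GI seen as loss of FRET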
[23] = molecular target: T4, Dual specificity protein phosphatase 6; format: functional
[24] = viability loss in Vero cells – cytotoxicity control for Vif-APOBEC3G degradation inhibitor project, dose response (AID 1117358); format: functional; conditions: Vero
[25] = mRNA 3' processing disruption, beta-gal signal increase – luminescence, S. cerevisiae SKY197-pL101, dose response (AID 2525); format: functional, cell-based
[26] = molecular target: T6, Eukaryotic translation initiation factor 2-alpha kinase 3 (Homo sapiens, UniProt Q9NZJ5); test: Dose response cell-based high-throughput screening assay to measure PERK inhibition. [Related pubchem assays: 1416 ]; format: functional
T6 sequence (Q9NZJ5 whole entry): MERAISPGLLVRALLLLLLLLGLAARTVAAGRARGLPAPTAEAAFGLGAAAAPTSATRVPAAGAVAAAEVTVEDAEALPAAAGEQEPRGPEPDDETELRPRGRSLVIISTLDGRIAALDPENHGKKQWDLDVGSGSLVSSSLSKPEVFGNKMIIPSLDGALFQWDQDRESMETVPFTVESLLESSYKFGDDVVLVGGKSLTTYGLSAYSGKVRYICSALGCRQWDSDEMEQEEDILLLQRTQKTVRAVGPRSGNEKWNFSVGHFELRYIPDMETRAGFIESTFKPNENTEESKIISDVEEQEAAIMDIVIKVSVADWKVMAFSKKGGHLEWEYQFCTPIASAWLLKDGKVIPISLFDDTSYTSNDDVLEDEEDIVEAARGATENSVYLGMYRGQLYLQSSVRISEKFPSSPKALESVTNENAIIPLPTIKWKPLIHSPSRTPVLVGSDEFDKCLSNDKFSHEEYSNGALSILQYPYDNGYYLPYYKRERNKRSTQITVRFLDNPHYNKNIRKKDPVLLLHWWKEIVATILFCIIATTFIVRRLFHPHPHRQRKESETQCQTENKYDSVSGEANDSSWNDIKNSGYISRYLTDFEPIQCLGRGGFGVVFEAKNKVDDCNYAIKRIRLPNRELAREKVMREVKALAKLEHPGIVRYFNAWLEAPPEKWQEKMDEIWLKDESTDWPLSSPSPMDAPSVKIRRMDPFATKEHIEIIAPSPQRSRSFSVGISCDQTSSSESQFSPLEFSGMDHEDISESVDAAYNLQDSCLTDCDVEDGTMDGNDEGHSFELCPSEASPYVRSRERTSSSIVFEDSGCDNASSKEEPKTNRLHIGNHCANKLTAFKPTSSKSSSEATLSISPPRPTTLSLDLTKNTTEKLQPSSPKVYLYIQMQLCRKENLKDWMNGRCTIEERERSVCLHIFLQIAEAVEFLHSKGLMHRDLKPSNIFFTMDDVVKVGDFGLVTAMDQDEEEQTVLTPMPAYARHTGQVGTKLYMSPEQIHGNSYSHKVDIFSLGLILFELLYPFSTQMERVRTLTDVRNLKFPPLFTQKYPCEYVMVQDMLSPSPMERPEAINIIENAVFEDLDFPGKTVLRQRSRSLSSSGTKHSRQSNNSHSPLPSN

[27] = molecular target: T6, Eukaryotic translation initiation factor 2-alpha kinase 3; test: Counterscreen assay for PERK inhibitors: Dose response cell-based high throughput screening assay to measure inhibition of PERK at 6 hours. [Related pubchem assays: 1522, 1416 ]; format: functional

CCC(Sc1nc(C)cc(O)n1)C(=O)Nc1nc2c(s1)CCCC2 (configuration not stated)
EC50 [1]: > 50 µM (not active)

CCn1c(C)nc2cc(C(=O)N/N=C(\C)c3ccc(OC)cc3O)ccc21
EC50 [2]: 12.8 µM (active)
EC50 [3]: 11.2 µM (active)
EC50 [4]: 9.16 µM (active)
EC50 [5]: > 100 µM (not active)
IC50 [6]: > 50 µM (not active)

O=C(O)C1Nc2c(O)cccc2C2C=CCC12 (configuration not stated)
IC50 [7]: 0.503 µM (active)
IC50 [8]: > 49.8 µM (not active)
IC50 [9]: 11.2 µM (active)
IC50 [10]: 47.7 µM (active)
IC50 [11]: 8.61 µM (active)
IC50 [12]: 62 µM (active)
IC50 [13]: 3.43 µM (active)
IC50 [14]: 29.4 µM (active)
IC50 [15]: 9.87 µM (active)
IC50 [16]: 4.98 µM (active)
IC50 [17]: > 50 µM (not active)
IC50 [18]: 8.5 µM (active)
IC50 [19]: > 10 µM (not active)
IC50 [20]: 6.84 µM (active)
IC50 [21]: 8.35 µM (active)
IC50 [22]: 12.7 µM (active)
IC50 [23]: 7.38 µM (active) and 14.6 µM (active)
CC50 [24]: > 40 µM (active)

N#C/C(=C/c1ccc([N+](=O)[O-])o1)c1nc2ccccc2[nH]1
EC50 [25]: 3.08 µM (active)

COc1ccc(C(=O)NCC(=O)OC2CCCCC2=O)cc1 (configuration not stated)
EC50 [26]: > 55.7 µM (not active)
EC50 [27]: > 55.7 µM (not active)
